Source: patent US20250145645A1, “BORON CARRYING AGENT, PREPARATION METHOD AND PHARMACEUTICAL FORMULATION THEREOF” (Peking University, priority 2021, published 2025)

Key:
[1] = tested on: rat cerebral 9L gliosarcoma; conditions: cited from earlier work
[2] = tested on: U87MG, U251, A549 and A375 cell lines; assay: Boron uptake in tumor cell lines, B content in cells by ICP-AES; assay type: cell-based; conditions: 0.1-0.8 mg/g aqueous solutions, 12 hours incubation, FIG. 1
Procedure: (§1) Compound I was formulated into aqueous solutions of 0.1 mg/g. 0.2 mg/g. 0.4 mg/g. 0.6 mg/g and 0.8 mg/g, added to U87MG, U251, A549 and A375 cell lines cultured in 25T petri dishes, respectively, and incubated in a thermostatic incubator for 12 hours. Subsequently, the cells and culture medium were separated, and the number of cells was determined. After the cells were digested with concentrated nitric acid, the B content in the cells was determined by ICP-AES.
(§2) The […] was 249.772 nm.

[3] = tested on: cerebral glioma U87MG cells; assay: Boron uptake in cells, B content by ICP-AES; assay type: cell-based; conditions: 12 hours, FIG. 3
Procedure: as §1, §2
(§3) Meanwhile, the BPA was formulated into aqueous solutions of 0.1 mg/g, 0.2 mg/g, 0.4 mg/g, 0.6 mg/g, and 0.8 mg/g, added into U87MG, U251, A375 and HS683 cell lines cultured in 25T petri dishes, respectively, and cultured in a thermostatic incubator for 12 hours. Subsequently, the cells and culture medium were separated, and the number of cells was determined. After the cells were digested with concentrated nitric acid, the B content in the cells was determined by ICP-AES and plotted as shown in FIG. 2.

glioma cell line U251 = assay: Boron uptake in cells, B content by ICP-AES; assay type: cell-based
Procedure: as §1, §2, §3

[4] = tested on: cerebral glioma HS683 cells; assay: Boron uptake in cells, B content by ICP-AES; assay type: cell-based; conditions: 12 hours, FIG. 3
HS683 cerebral glioma = assay: Tissue uptake in mouse cerebral glioma model, ICP-MS; assay type: in vivo, BALB/c mice; conditions: 500 mg/kg via tail vein, two hours after administration, FIG. 4
Procedure: Healthy BALB/c mice with an average weight of approximately 21 g were selected and inoculated with HS683 cerebral glioma to establish a mouse cerebral glioma model. After 21 days, the mouse cerebral glioma model was generated, and 500 mg/kg of BPA, temozolomide or compound I solution was injected via the tail vein of the mice. After administration, the major tissues and organs (heart, liver, spleen, lungs, kidneys and tumor sites) of the mice were removed at selected time periods (1 hour, 2 hours, and 4 hours). After washing and weighing, the tissues and organs were digested with concentrated nitric acid. The digested tissue sample was diluted and the concentration in the sample was determined by ICP-MS.

Row | uptake in the mouse cerebral glioma site compared with BPA (HS683 cerebral glioma) | Structure (SMILES) | uptake by other types of tumor cells [1] | boron concentration in the cells (B content in every 10^6 cells) [2] | cellular uptake compared with BPA [3] | cellular uptake compared with BPA (glioma cell line U251; U251 cells, 12 hours, FIG. 3) | uptake, ranking among cell lines (glioma cell line U251; U251 versus U87MG, A549, A375, within 12 hours) | cellular uptake compared with BPA [4]
1 |  | N[C@@H](Cc1ccc(B(O)O)cc1)C(=O)O [BPA, ^10B-p-Dicarboxylboronic acid phenylalanine] | taken up |  |  |  |  | 
2 | higher than that of BPA | Cn1nnc2c(C(=O)OCc3ccc([B-]45OCC[N+]4(C)CCO5)cc3)ncn2c1=O (stereo not shown) [Compound I] |  | positively correlated with the concentration of the added product | significantly higher than BPA | significantly higher than BPA | best uptake | significantly higher than BPA
